Data on four compounds can be found in patent publication US20120164203A1, “PROCESS FOR PREPARATION OF STABLE, MICROENCAPSULATED AND SUSTAINED RELEASE BIOCIDAL ACTIVES AND COMPOSITION THEREOF” (priority 2009, published 2012).

The nature of data set [1]: Analytical determination of active ingredient in the leachate (water, UV-Vis). Type of data set: physicochemical. The conditions noted are these: active 5% in water. On the procedure: The active ingredient is added (5%) to required amount of water. After a certain amount of time, the leachate is collected through a filter and the same amount of water replaced. The amount of active ingredients of each leachate is determined analytically by UV-Vis.

Data set [2] has as its system Escherichia coli ATCC 11229. Kind of data set: Antimicrobial activity (log reduction) on flexible PVC surface, Z 2801:2000. The conditions noted are these: 24 hrs incubation. Format: cell-based. As for the experimental part:
(§1) The aqueous biocidal dispersion containing encapsulated biocide was prepared as described in example 19 to provide 20% BIT (prepared as described in Example 5). The dispersion was incorporated into flexible PVC using a Brabender. The plastic samples containing different BIT concentrations were tested according to the Japanese HS Z 2801:2000 entitled “Antimicrobial products-test for antimicrobial activity and efficacy.”
(§2) Briefly, samples were inoculated on the surface with bacterial strains such as Escherichia coli ATCC 11229 or Staphylococcus aureus ATCC 6538. After 24 hrs of incusbation, the samples were examined to determine the number of bacterial count left on the surface of the sample. A reduction in the bacterial population or count was estimated based on the plate count of the control (untreated or blank) sample and treated samples. The results of this activity indicate that aqueous biocidal dispersion prepared according to the present invention provides better antibacterial activity through larger log reduction and is shown in Table 3.

For data set [3], the system named is Staphylococcus aureus ATCC 6538. The data set is described as above. Type of data set: cell-based. To be noted: 24 hrs incubation. On the procedure: as §1, §2
A short description of data set [4]: Analytical determination of active ingredient leaching out of a paint film (UV-Visible). Format: physicochemical. The conditions noted are these: PVA paint film, total IPBC incorporated 2000 ppm. As for the experimental part: The active ingredient is added to PVA paint to a final concentration of 2000 ppm. Drawdown of the paint samples are prepared by casting a 3-mil film onto drawdown paperboard (Lanetta). The drawdown samples are allowed to dry at room temperature for 24 hrs. A sample of 2×6 cm is cut. The cut samples are then placed in 100 ml of water in a closed beaker for the different duration of time limits. At different time intervals the water is collected and replaced with the same amount of water. The quantity of the active ingredient present in each leachate is determined by UV-Visible spectroscopic method.

In the case of `CCNc1nc(NC(C)(C)C)nc(SC)n1` [Non-encapsulated Terbutryn, Terbutryn], the “Terbutryn in water (in ppm)” value in data set [1] (leaching time 5 minutes) was found to be 150 ppm; in data set [1] (leaching time 1 hr), 90 ppm; in data set [1] (leaching time 24 hrs), 79.8 ppm.
On to `O=c1[nH]sc2ccccc12` [BIT, 1,2-benzisothiazoline-3-one], for which the “Antimicrobial Activity (Log Reduction) E. coli” value in data set [2] (100 ppm in flexible PVC) is given as 0.9; in data set [2] (250 ppm in flexible PVC) it was 2.5. Further, the results for the “Antimicrobial Activity (Log Reduction) S. aureus” value in data set [3] (100 ppm in flexible PVC) and in data set [3] (250 ppm in flexible PVC) were 0.2 and 0.6, respectively.
`CCCCNC(=O)OCC#CI` [Non-encapsulated IPBC, 3-iodo-2-propargyl butyl carbamate]: the “IPBC in water (in ppm)” value is recorded as 356 ± 4 ppm in data set [1] (leaching time 5 minutes), 273 ± 10 ppm in data set [1] (leaching time 1 hr) and 236 ± 22 ppm in data set [1] (leaching time 24 hrs). Further, the “IPBC (in ppm) leached from Paint film” value came out at 1050 ppm in data set [4] (leaching time 1 hr), 102 ppm in data set [4] (leaching time 3 hrs), 65 ppm in data set [4] (leaching time 15 hrs) and 78 ppm in data set [4] (leaching time 48 hrs).
`CN(C)C(=O)Nc1ccc(Cl)c(Cl)c1` [Non-encapsulated Diuron, Diuron]: the “Diuron in water (in ppm)” value in data set [1] (leaching time 30 minutes) was 53.6 ppm; in data set [1] (leaching time 2 hrs), 51.4 ppm; in data set [1] (leaching time 4 hrs) it was 54.6 ppm; in data set [1] (leaching time 20 hrs), 52.0 ppm.
